In ChEMBL document CHEMBL1201862, “PubChem BioAssay data set” (2004):
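Protocol summary: plate cells (96-well), add compound at 5 concentrations, incubate 48 h, interpolate endpoints linearly. GI50: concentration for 50% inhibition of growth.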 The source made the active and inactive calls. Rule as the data show it: active = GI50 up to about 1.1 µM and inactive = higher.

Assays:
Assay in all cases: NCI tumour cell line growth inhibition, 48 h
NCI-H460 = system: NCI-H460
HCT-15 = system: HCT-15
SK-MEL-2 = system: SK-MEL-2
NCI-H226 = system: NCI-H226
SNB-19 = system: SNB-19
KM12 = system: KM12
UO-31 = system: UO-31
PC-3 = system: PC-3
COLO 205 = system: COLO 205
OVCAR-8 = system: OVCAR-8
NCI-H522 = system: NCI-H522
OVCAR-5 = system: OVCAR-5
SF-295 = system: SF-295
BT-549 = system: BT-549
MOLT-4 = system: MOLT-4
RXF 393 = system: RXF 393
OVCAR-3 = system: OVCAR-3
UACC-257 = system: UACC-257
HOP-92 = system: HOP-92
CAKI-1 = system: CAKI-1

Row | Compound | GI50 (NCI-H460) | GI50 (HCT-15) [µM] | GI50 (SK-MEL-2) | GI50 (NCI-H226) | GI50 (SNB-19) | GI50 (KM12) | GI50 (UO-31) | GI50 (PC-3) | GI50 (COLO 205) | GI50 (OVCAR-8) | GI50 (NCI-H522) | GI50 (OVCAR-5) | GI50 (SF-295) | GI50 (BT-549) | GI50 (MOLT-4) | GI50 (RXF 393) | GI50 (OVCAR-3) | GI50 (UACC-257) | GI50 (HOP-92) | GI50 (CAKI-1)
1 | Cc1c(/N=N/c2ccccc2)c(-c2ccccc2)n(C2OC(CO)C(O)C(O)C2O)c(=S)c1C#N (stereo not drawn) | 10.6 µM (inactive) | 5.01 | 4.48 µM (inactive) | 10.8 µM (inactive) | 7.64 µM (inactive) | 2.98 µM (inactive) | 7.74 µM (inactive) | 2.99 µM (inactive) | 5.56 µM (inactive) | 3.99 µM (inactive) | 3.5 µM (inactive) | 13.8 µM (inactive) | 6.71 µM (inactive) | 5.4 µM (inactive) | 1.95 µM (inactive) | 2.5 µM (inactive) | 4.56 µM (inactive) | – | – | –
2 | O=c1[nH]c(=O)c2c3n(cc2[nH]1)CCCCC3 | > 100 µM (inactive) | > 100 | – | > 100 µM (inactive) | > 100 µM (inactive) | > 100 µM (inactive) | > 100 µM (inactive) | > 100 µM (inactive) | > 100 µM (inactive) | > 100 µM (inactive) | > 100 µM (inactive) | > 100 µM (inactive) | > 100 µM (inactive) | – | > 100 µM (inactive) | > 100 µM (inactive) | – | > 100 µM (inactive) | > 100 µM (inactive) | > 100 µM (inactive)
3 | O=C(NCc1ccccc1)c1cc2cc(O)c(O)cc2cn1 | 9.79 µM (inactive) | 20 | 46.3 µM (inactive) | 26.9 µM (inactive) | 46.9 µM (inactive) | 31.9 µM (inactive) | 18.1 µM (inactive) | – | 34.8 µM (inactive) | 21.2 µM (inactive) | 4.69 µM (inactive) | 33.5 µM (inactive) | 24.3 µM (inactive) | – | – | 21 µM (inactive) | 34.1 µM (inactive) | 26.9 µM (inactive) | 39.1 µM (inactive) | 35.6 µM (inactive)
4 | O=C1CC(c2ccccc2)n2cccc21 (stereo not drawn) | – | > 100 | > 100 µM (inactive) | > 100 µM (inactive) | > 100 µM (inactive) | > 100 µM (inactive) | 67.6 µM (inactive) | > 100 µM (inactive) | > 100 µM (inactive) | > 100 µM (inactive) | > 100 µM (inactive) | > 100 µM (inactive) | > 100 µM (inactive) | – | > 10 µM (inactive) | > 100 µM (inactive) | > 100 µM (inactive) | > 100 µM (inactive) | > 100 µM (inactive) | > 100 µM (inactive)
5 | COc1ccc(N[S+]([O-])c2ccc(Cl)cc2)cc1 (stereo not drawn) | 24.3 µM (inactive) | 19.5 | 24.5 µM (inactive) | 19.5 µM (inactive) | 93.1 µM (inactive) | 7.31 µM (inactive) | 14.6 µM (inactive) | – | > 100 µM (inactive) | 73.3 µM (inactive) | 16.2 µM (inactive) | – | 45.8 µM (inactive) | 0.248 µM (active) | 20.6 µM (inactive) | – | 90.4 µM (inactive) | 17.9 µM (inactive) | – | –
6 | N#Cc1cc(C#N)c(Cl)nc1N | > 10 µM (inactive) | > 10 | > 10 µM (inactive) | > 10 µM (inactive) | > 10 µM (inactive) | > 10 µM (inactive) | 0.0323 µM (active) | > 10 µM (inactive) | > 10 µM (inactive) | > 10 µM (inactive) | – | – | > 10 µM (inactive) | – | > 10 µM (inactive) | > 10 µM (inactive) | > 10 µM (inactive) | – | > 10 µM (inactive) | –
7 | CSc1nc(NC2OCC(OC(C)=O)C(OC(C)=O)C2OC(C)=O)c(/N=C\C=N\c2c(NC3OCC(OC(C)=O)C(OC(C)=O)C3OC(C)=O)nc(SC)[nH]c2=O)c(=O)[nH]1 (stereo not drawn) | > 100 µM (inactive) | > 100 | > 100 µM (inactive) | > 52.8 µM (inactive) | 46.3 µM (inactive) | > 100 µM (inactive) | > 83 µM (inactive) | – | > 100 µM (inactive) | 46.7 µM (inactive) | > 61.2 µM (inactive) | > 71.8 µM (inactive) | > 66.8 µM (inactive) | 55.2 µM (inactive) | > 100 µM (inactive) | 22.8 µM (inactive) | > 100 µM (inactive) | > 100 µM (inactive) | 35.5 µM (inactive) | > 100 µM (inactive)
8 | CN(C)CCNc1ncnc2nc(-c3ccccc3)c(-c3ccccc3)nc12 | – | – | > 100 µM (inactive) | > 100 µM (inactive) | – | > 100 µM (inactive) | > 100 µM (inactive) | > 100 µM (inactive) | > 100 µM (inactive) | > 100 µM (inactive) | > 100 µM (inactive) | > 100 µM (inactive) | – | > 100 µM (inactive) | 0.094 µM (active) | > 100 µM (inactive) | > 100 µM (inactive) | > 100 µM (inactive) | – | > 100 µM (inactive)
